{
  "source": "patent US11135223B2",
  "about": "“Compositions and methods for inhibiting Dkk-1” (YALE UNIVERSITY, priority 2016, dated 2021)",
  "biological_target": "T1, Dkk-1 (Mus musculus, UniProt O54908)",
  "T1 construct": "the primary circulating source of Dkk-1 in during both homeostatic and allergen-challenged conditions is platelets; from tissue; host or cells: living C57BL/6 mice; circulating Dkk-1 released from platelets",
  "T1 sequence (O54908 32-272)": "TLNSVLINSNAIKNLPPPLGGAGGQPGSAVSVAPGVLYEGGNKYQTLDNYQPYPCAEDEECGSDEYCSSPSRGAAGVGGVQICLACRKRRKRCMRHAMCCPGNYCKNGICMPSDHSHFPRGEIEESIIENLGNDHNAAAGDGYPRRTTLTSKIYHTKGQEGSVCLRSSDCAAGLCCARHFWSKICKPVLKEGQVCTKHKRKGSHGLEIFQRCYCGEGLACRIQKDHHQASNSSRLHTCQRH",
  "assay": "House dust mite (HDM)-induced asthma model",
  "type": "in vivo, mice",
  "source_text": "FIG. 1, comprising FIG. 1A through FIG. 1F, depicts results of experiments showing the characterization of Dkk-1^d/d mice. FIG. 1A depicts flow cytometry analysis of single cell suspensions from spleen of six to ten week-old Dkk-1^d/d mice (n=5) and their wildtype littermate controls (n=3). FIG. 1B depicts flow cytometry analysis of single cell suspensions from bone marrow of six to ten week-old Dkk-1^d/d mice (n=5) and their wildtype littermate controls (n=3). FIG. 1C depicts ELISA analysis of splenic CD4 T cells isolated by MACS and stimulated with anti-CD3 and anti-CD28 mAb (2 μg/ml) for 4 days. FIG. 1C depicts percentage of cells in peripheral blood from ten to twelve week-old Dkk-1^d/d mice (n=5) and their wildtype littermate controls (n=5) measured by HEMAVAT analyzer. WBC (White blood cells), NE (Neutrophils), LY (Lymphocytes), MO (Monocytes), EO (Eosinophils) were counted. FIG. 1D depicts cell number in peripheral blood from ten to twelve week-old Dkk-1^d/d mice (n=5) and their wildtype littermate controls (n=5) measured by HEMAVAT analyzer. WBC (White blood cells), NE (Neutrophils), LY (Lymphocytes), MO (Monocytes), EO (Eosinophils) were counted. FIG. 1F depicts airway resistance of Dkk-1^d/d and C57Bl/6 mice. […] Control group mice (n=3) were challenged with PBS. […] Dkk-1 inhibitor (10 mg/kg) was injected intraperitoneally at day −1, +1, +6, +8, +10, and +12. Student's t-test was used. n.s, not significant. Small horizontal lines indicate the mean (±s.e.m.). *, p<0.05\nFIG. 11, comprising FIG. 11A through FIG. 11J, depicts results of experiments showing Dkk-1 facilitates leukocyte migration and regulates leukocyte-platelet aggregate formation in type 2 inflammation. FIG. 11A depicts flow cytometry analysis of CD45^+ cells in lung homogenates from nine-week old Dkk-1^d/d mice and wildtype littermate controls (n=5-6/group) 72 hours after challenge with 30 μg HDM allergen extract. FIG. 11B depicts analysis of percentages of CD45^+CD41^+ cells in peripheral blood from nine-week old Dkk-1^d/d mice and wildtype littermate controls collected at 4 hours and 24 hours after allergen challenge. FIG. 11C depicts flow cytometry analysis of CD45+ cells after Dkk-1 protein (300 ng/mouse) was injected intraperitoneally. FIG. 11D depicts a schematic diagram of Dkk-1 inhibitor treatment protocol for each group (n=5 for each group) in the HDM-induced asthma model. HDM allergen extract (10 μg) was challenged intranasally at the indicated time points. FIG. 11E depicts analysis of CD45^+ leukocytes numbers in BALF and Lung after Dkk-1 inhibitor treatment in the HDM-induced asthma model. FIG. 11F depicts analysis of neutrophils, eosinophils, and CD4 T cell numbers in the lungs after Dkk-1 inhibitor treatment in the HDM-induced asthma model. FIG. 11G depicts analysis of the number of CD4 T cells in mediastinal LNs. FIG. 11H depicts ELISA analysis of cytokines after 4 days of stimulation of med LN cells. FIG. 111 depicts scoring of H&E staining. FIG. 11J depicts scoring of PAS staining.\nFIG. 13, comprising FIG. 13A through FIG. 13C, depicts results of experiments showing pharmacological antagonism of Dkk-1 in the HDM-induced asthma model. FIG. 13A depicts neutrophils and eosinophils in BALF. FIG. 13B depicts CD4 T cell percentages in med LNs measured by flow cytometry. FIG. 13C depicts representative images H&E and PAS staining. One-way ANOVA analysis with Dunnet's post-hoc test was performed. **, p<0.005, *, p<0.05.\nFIG. 18 depicts results of experiments showing a Dkk-1 monoclonal antibody treatment protects […] mice from house dust mite (HDM)-induced asthma. Six-week-old female C57Bl/6 mice were treated with PBS(n=4), HDM(n=5), HDM and isotype antibody (n=5), and HDM plus Dkk-1 mAb (n=5). 10 μg of HDM was treated intranasally on day 0, 7, 8, 9, 10 and 11. Isotype antibody or Dkk-1 mAb was treated on day −1, +1, +6, +8, and +10. On day 14, mice were sacrificed and the lungs were harvested. fHCD45+ leukocytes were counted by flow cytometry. […]",
  "data": [
    {"smiles": "NCC1CCN(c2nccc(-c3ccc4ccccc4c3)n2)CC1", "note": "[WAY-262611, (1-(4-(naphthalen-2-yl)pyrimidin-2-yl)piperidin-4-yl)methanamine]", "values": [
      {"measurement": "airway resistance increase by HDM", "setting": "C57Bl/6 mice, Dkk-1 inhibitor 10 mg/kg intraperitoneally, FIG. 1F", "result": "notably decreased"},
      {"measurement": "number of CD4 T cells in mediastinal lymph nodes", "setting": "FIG. 11G", "result": "reduced"},
      {"measurement": "Leukocyte infiltration including CD4 T cells, neutrophils, and eosinophils in BAL fluid and lung tissues", "setting": "both ET (early treatment) and LT (late treatment) protocols, FIG. 11E, 11F, 13A", "result": "markedly decreased"},
      {"measurement": "histopathological scores (H&E, PAS)", "setting": "challenge stage or sensitization stage treatment, FIG. 11I, 11J, 13C", "result": "inhibition of type 2 inflammatory responses"},
      {"measurement": "TH2 cytokine secretion from mediastinal lymph nodes", "setting": "ex vivo stimulation of med LN cells 4 days, FIG. 11H", "result": "diminished"},
      {"measurement": "percentage of CD4 T cells in the lymph nodes", "setting": "mediastinal lymph nodes, FIG. 13", "result": "did not change"}
    ]}
  ]
}
